# Results: patent US20250136586A1, “Substituted 7-(Pyrimidin-4-yl)Quinolin-4(1H)-One Compounds as Cyclin Dependent Kinase Inhibitors” (BeiGene, Ltd., priority 2022, published 2025)
# Key:
# CDK4/Cyclin D1 = CDK4/Cyclin D1 (Homo sapiens (Human), UniProt P11802); assay: TR-FRET kinase inhibition assay, CDK4/Cyclin D1; assay type: biochemical; conditions: 1 mM ATP, 0.15 μM Rb (Ser780)-biotin substrate, read-out: CDK4D1 IC50
# Procedure: Compounds disclosed herein were tested for inhibition of CDK4/Cyclin D1 or CDK6/Cyclin D3 kinase in an assay based on the time-resolved fluorescence-resonance energy transfer (TR-FRET) methodology. […] The kinase was incubated with compound for 60 minutes at room temperature and the reaction was initiated by the addition of ATP and Rb (Ser780)-biotin substrate. After reaction at room temperature for 120 minutes, an equal volume of stop/detection solution was added according to the manufacture's instruction (Cisbio Bioassays). The stop/detection solution contained Streptavidin-XL665 and Anti-pRb (Ser780) mAb-Eu Cryptate in Detection buffer (Cisbio Bioassays). […] The inhibition percentage of CDK4/Cyclin D1 or CDK6/Cyclin D3 kinase activity in presence of increasing concentrations of compounds was calculated based on the ratio of fluorescence at 665 nm to that at 620 nm. The IC50 for each compound was derived from fitting the data to the four-parameter logistic equation by Dotmatics.
# CDK6/Cyclin D3 = CDK6/Cyclin D3 (Homo sapiens (Human), UniProt Q00534); assay: TR-FRET kinase inhibition assay, CDK6/Cyclin D3; assay type: biochemical; conditions: 1 mM ATP, 0.15 μM Rb (Ser780)-biotin substrate, read-out: CDK6D3 IC50
# Procedure: Compounds disclosed herein were tested for inhibition of CDK4/Cyclin D1 or CDK6/Cyclin D3 kinase in an assay based on the time-resolved fluorescence-resonance energy transfer (TR-FRET) methodology. The assay was carried out in 384-well low volume black plates in a reaction mixture containing CDK4/Cyclin D1 or CDK6/Cyclin D3, 1 mM ATP, 0.15 μM Rb (Ser780)-biotin substrate and 0-10 μM compound in buffer containing 50 mM HEPES pH7.0, 0.02% NaN3, 0.01% BSA, 0.1 mM Orthovanadate, 50 mM MgCl2, 1 mM DTT and 0.005% Tween-20. The kinase was incubated with compound for 60 minutes at room temperature and the reaction was initiated by the addition of ATP and Rb (Ser780)-biotin substrate. After reaction at room temperature for 120 minutes, an equal volume of stop/detection solution was added according to the manufacture's instruction (Cisbio Bioassays). The stop/detection solution contained Streptavidin-XL665 and Anti-pRb (Ser780) mAb-Eu Cryptate in Detection buffer (Cisbio Bioassays). Plates were incubated at room temperature for 60 minutes, and the TR-FRET signals (ex337 nm, em665 nm/620 nm) were recorded on a PHERAstar FSX plate reader (BMG Labtech). The inhibition percentage of CDK4/Cyclin D1 or CDK6/Cyclin D3 kinase activity in presence of increasing concentrations of compounds was calculated based on the ratio of fluorescence at 665 nm to that at 620 nm. The IC50 for each compound was derived from fitting the data to the four-parameter logistic equation by Dotmatics.
# Sequence of CDK4/Cyclin D1 (P11802 whole entry): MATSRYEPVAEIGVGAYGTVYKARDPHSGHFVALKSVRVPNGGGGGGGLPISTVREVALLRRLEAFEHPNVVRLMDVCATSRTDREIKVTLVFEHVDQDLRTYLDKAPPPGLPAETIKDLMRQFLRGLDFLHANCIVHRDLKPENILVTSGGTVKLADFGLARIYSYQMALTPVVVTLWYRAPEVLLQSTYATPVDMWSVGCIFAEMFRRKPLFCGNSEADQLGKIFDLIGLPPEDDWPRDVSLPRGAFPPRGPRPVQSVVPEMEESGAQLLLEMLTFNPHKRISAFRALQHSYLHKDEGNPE
# Sequence of CDK4/Cyclin D1 (P24385 whole entry partner): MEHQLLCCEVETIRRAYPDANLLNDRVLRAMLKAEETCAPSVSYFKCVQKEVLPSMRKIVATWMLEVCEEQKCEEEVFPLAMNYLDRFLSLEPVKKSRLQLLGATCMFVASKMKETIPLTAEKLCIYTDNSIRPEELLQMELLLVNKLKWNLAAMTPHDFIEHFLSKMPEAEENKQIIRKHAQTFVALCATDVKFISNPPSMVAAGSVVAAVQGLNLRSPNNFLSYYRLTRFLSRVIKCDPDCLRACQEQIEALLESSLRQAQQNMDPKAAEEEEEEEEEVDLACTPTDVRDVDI
# Sequence of CDK6/Cyclin D3 (Q00534 whole entry): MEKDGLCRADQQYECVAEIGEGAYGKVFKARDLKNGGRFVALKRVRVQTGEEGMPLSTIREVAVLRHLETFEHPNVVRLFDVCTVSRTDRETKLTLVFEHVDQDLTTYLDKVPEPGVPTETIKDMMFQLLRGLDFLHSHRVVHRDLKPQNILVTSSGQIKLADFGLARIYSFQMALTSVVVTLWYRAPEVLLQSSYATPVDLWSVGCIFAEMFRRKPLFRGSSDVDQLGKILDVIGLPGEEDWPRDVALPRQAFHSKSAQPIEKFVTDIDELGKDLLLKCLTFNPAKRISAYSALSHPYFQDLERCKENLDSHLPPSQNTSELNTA
# Sequence of CDK6/Cyclin D3 (P30281 whole entry partner): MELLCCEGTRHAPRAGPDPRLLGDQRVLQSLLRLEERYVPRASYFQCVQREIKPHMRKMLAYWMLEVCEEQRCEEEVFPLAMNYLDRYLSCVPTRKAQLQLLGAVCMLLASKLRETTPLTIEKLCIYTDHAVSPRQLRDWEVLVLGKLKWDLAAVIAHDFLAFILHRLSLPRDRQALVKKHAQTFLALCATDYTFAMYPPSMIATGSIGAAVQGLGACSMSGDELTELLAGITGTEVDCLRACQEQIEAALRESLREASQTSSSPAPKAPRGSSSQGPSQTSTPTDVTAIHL
IC50 (CDK4/Cyclin D1) [nM],IC50 (CDK6/Cyclin D3) [nM],SMILES
27,675,"CC(C)n1c(CN[C@@H]2CCCOC2)cc(=O)c2ccc(-c3nc(N[C@@H]4CCOC[C@H]4O)ncc3F)cc21 [Example 59, 7-(5-fluoro-2-(((3S,4R)-3-hydroxytetrahydro-2H-pyran-4-yl)amino)pyrimidin-4-yl)-1-isopropyl-2-((((R)-tetrahydro-2H-pyran-3-yl)amino)methyl)quinolin-4(1H)-one]"
35,385,"CC(C)n1c(C(=O)NCCC#N)cc(=O)c2ccc(-c3nc(N[C@@H]4CCOC[C@H]4O)ncc3Cl)cc21 [Example 21, 7-(5-chloro-2-(((3S,4R)-3-hydroxytetrahydro-2H-pyran-4-yl)amino)pyrimidin-4-yl)-N-(2-cyanoethyl)-1-isopropyl-4-oxo-1,4-dihydroquinoline-2-carboxamide]"
21,525,"CC(C)n1c(CNC(C)(C)C)cc(=O)c2ccc(-c3nc(N[C@@H]4CCOC[C@H]4O)ncc3F)cc21 [Example 75, 2-((tert-butylamino)methyl)-7-(5-fluoro-2-(((3S,4R)-3-hydroxytetrahydro-2H-pyran-4-yl)amino)pyrimidin-4-yl)-1-isopropylquinolin-4(1H)-one]"
21,693,"CC(C)n1c(CN2CCC[C@H](F)C2)cc(=O)c2ccc(-c3nc(N[C@@H]4CCOC[C@H]4O)ncc3F)cc21 [Example 69, 7-(5-fluoro-2-(((3S,4R)-3-hydroxytetrahydro-2H-pyran-4-yl)amino)pyrimidin-4-yl)-2-(((S)-3-fluoropiperidin-1-yl)methyl)-1-isopropylquinolin-4(1H)-one]"
9.1,209,"CC(C)n1c(CNC2CC2)cc(=O)c2ccc(-c3nc(N[C@@H]4CCOC[C@H]4O)ncc3F)cc21 [Example 48, 2-((cyclopropylamino)methyl)-7-(5-fluoro-2-(((3S,4R)-3-hydroxytetrahydro-2H-pyran-4-yl)amino)pyrimidin-4-yl)-1-isopropylquinolin-4(1H)-one]"
15,615,"Cc1c(CN[C@@H]2CCOC2)n(C(C)C)c2cc(-c3nc(N[C@@H]4CCOC[C@H]4O)ncc3F)ccc2c1=O [Example 112, 7-(5-fluoro-2-(((3S,4R)-3-hydroxytetrahydro-2H-pyran-4-yl)amino)pyrimidin-4-yl)-1-isopropyl-3-methyl-2-((((R)-tetrahydrofuran-3-yl)amino)methyl)quinolin-4(1H)-one]"
0.8,21.6,"Cc1c(CN2[C@H](C)COC[C@@H]2C)n(C(C)C)c2cc(-c3nc(N[C@@H]4CCOC[C@H]4O)ncc3F)ccc2c1=O [Example 72, 2-(((3R,5S)-3,5-dimethylmorpholino)methyl)-7-(5-fluoro-2-(((3S,4R)-3-hydroxytetrahydro-2H-pyran-4-yl)amino)pyrimidin-4-yl)-1-isopropyl-3-methylquinolin-4(1H)-one]"
5.1,237,"Cc1c(C2CCN2C)n(C(C)C)c2cc(-c3nc(N[C@@H]4CCOC[C@H]4O)ncc3F)ccc2c1=O (stereo partly drawn) [Example 387, 7-(5-fluoro-2-(((3S,4R)-3-hydroxytetrahydro-2H-pyran-4-yl)amino)pyrimidin-4-yl)-1-isopropyl-3-methyl-2-(1-methylazetidin-2-yl)quinolin-4(1H)-one]"
30,1170,"CC(C)n1c(CN2CC[C@](C)(O)C2)cc(=O)c2ccc(-c3nc(N[C@@H]4CCOC[C@H]4O)ncc3F)cc21 [Example 61, 7-(5-fluoro-2-(((3S,4R)-3-hydroxytetrahydro-2H-pyran-4-yl)amino)pyrimidin-4-yl)-2-(((S)-3-hydroxy-3-methylpyrrolidin-1-yl)methyl)-1-isopropylquinolin-4(1H)-one]"

# Second part, the compound before the results:
SMILES,IC50 (CDK4/Cyclin D1) [nM],IC50 (CDK6/Cyclin D3) [nM]
"CC(C)n1cc(C2CC2)c(=O)c2ccc(-c3nc(N[C@@H]4CCOC[C@H]4O)ncc3F)cc21 [Example 9, 3-cyclopropyl-7-(5-fluoro-2-(((3S,4R)-3-hydroxytetrahydro-2H-pyran-4-yl)amino)pyrimidin-4-yl)-1-isopropylquinolin-4(1H)-one]",59,590
"Cc1c(CN[C@H]2CCOC2)n(C(C)C)c2cc(-c3nc(N[C@@H]4CCOC[C@H]4O)ncc3F)ccc2c1=O [Example 113, 7-(5-fluoro-2-(((3S,4R)-3-hydroxytetrahydro-2H-pyran-4-yl)amino)pyrimidin-4-yl)-1-isopropyl-3-methyl-2-((((S)-tetrahydrofuran-3-yl)amino)methyl)quinolin-4(1H)-one]",17,663
"CC(C)n1c(CN[C@H]2CCCOC2)cc(=O)c2ccc(-c3nc(N[C@@H]4CCOC[C@H]4O)ncc3F)cc21 [Example 60, 7-(5-fluoro-2-(((3S,4R)-3-hydroxytetrahydro-2H-pyran-4-yl)amino)pyrimidin-4-yl)-1-isopropyl-2-((((S)-tetrahydro-2H-pyran-3-yl)amino)methyl)quinolin-4(1H)-one]",22,638
"CC(C)n1c(CN2C[C@@H](F)[C@@H](O)C2)cc(=O)c2ccc(-c3nc(N[C@@H]4CCOC[C@H]4O)ncc3F)cc21 [Example 45, 7-(5-fluoro-2-(((3S,4R)-3-hydroxytetrahydro-2H-pyran-4-yl)amino)pyrimidin-4-yl)-2-(((3R,4S)-3-fluoro-4-hydroxypyrrolidin-1-yl)methyl)-1-isopropylquinolin-4(1H)-one]",21,651
"CC(C)n1c(CN2CCC[C@@H](F)C2)cc(=O)c2ccc(-c3nc(N[C@@H]4CCOC[C@H]4O)ncc3F)cc21 [Example 98, 7-(5-fluoro-2-(((3S,4R)-3-hydroxytetrahydro-2H-pyran-4-yl)amino)pyrimidin-4-yl)-2-(((R)-3-fluoropiperidin-1-yl)methyl)-1-isopropylquinolin-4(1H)-one]",8.6,370
"Cc1c(CN2CCCC3(CCNC3=O)C2)n(C(C)C)c2cc(-c3nc(N[C@@H]4CCOC[C@H]4O)ncc3F)ccc2c1=O (stereo partly drawn) [Example 124, 7-((7-(5-fluoro-2-(((3S,4R)-3-hydroxytetrahydro-2H-pyran-4-yl)amino)pyrimidin-4-yl)-1-isopropyl-3-methyl-4-oxo-1,4-dihydroquinolin-2-yl)methyl)-2,7-diazaspiro[4.5]decan-1-one]",5,230
"Cc1cc(=O)c2ccc(-c3nc(N[C@@H]4CCOC[C@H]4O)ncc3F)cc2n1C(C)C [Example 6, 7-(5-fluoro-2-(((3S,4R)-3-hydroxytetrahydro-2H-pyran-4-yl)amino)pyrimidin-4-yl)-1-isopropyl-2-methylquinolin-4(1H)-one]",15,345
"CC(C)n1c(CN2CC[C@@H](O)C2)cc(=O)c2ccc(-c3nc(N[C@@H]4CCOC[C@H]4O)ncc3F)cc21 [Example 87, 7-(5-fluoro-2-(((3S,4R)-3-hydroxytetrahydro-2H-pyran-4-yl)amino)pyrimidin-4-yl)-2-(((R)-3-hydroxypyrrolidin-1-yl)methyl)-1-isopropylquinolin-4(1H)-one]",22,682
"CC(C)n1c(CN2CCC3(CCCO3)CC2)cc(=O)c2ccc(-c3nc(N[C@@H]4CCOC[C@H]4O)ncc3F)cc21 [Example 44, 2-((1-oxa-8-azaspiro[4.5]decan-8-yl)methyl)-7-(5-fluoro-2-(((3S,4R)-3-hydroxytetrahydro-2H-pyran-4-yl)amino)pyrimidin-4-yl)-1-isopropylquinolin-4(1H)-one]",29,1280
"CC(C)n1c(CN2C[C@H]3COC[C@H]3C2)cc(=O)c2ccc(-c3nc(N[C@@H]4CCOC[C@H]4O)ncc3F)cc21 [Example 41, 7-(5-fluoro-2-(((3S,4R)-3-hydroxytetrahydro-2H-pyran-4-yl)amino)pyrimidin-4-yl)-1-isopropyl-2-(((3aR,6aS)-tetrahydro-1H-furo[3,4-c]pyrrol-5(3H)-yl)methyl)quinolin-4(1H)-one]",24,1300
"CC(C)n1c(CN2CCCC(F)(F)C2)cc(=O)c2ccc(-c3nc(N[C@@H]4CCOC[C@H]4O)ncc3F)cc21 [Example 70, 2-((3,3-difluoropiperidin-1-yl)methyl)-7-(5-fluoro-2-(((3S,4R)-3-hydroxytetrahydro-2H-pyran-4-yl)amino)pyrimidin-4-yl)-1-isopropylquinolin-4(1H)-one]",11,396
